Assay results taken from ChEMBL document CHEMBL1240304, “Host sphingolipid biosynthesis as a target for hepatitis C virus therapy” (Nat Chem Biol, 2005).
Calls of active or inactive are those of the source. No cut-off for these calls is given here.

Tests used:
[1] = system: Hepatitis C virus; assay: Antiviral activity against Hepatitis C virus (isolate Con1) genotype 1b in human Huh-7/3-1 cells assessed as inhibition of HCV replication at 0.1 to 100 nM after 72 hrs by luciferase assay; type: functional, organism-based; conditions: Hepacivirus hominis
[2] = system: Hepatitis C virus; assay: Antiviral activity against Hepatitis C virus (isolate Con1) genotype 1b in human Huh-7/3-1 cells assessed as decrease in replicon RNA at 0.01 to 1 uM after 72 hrs by Northern blot analysis; type: functional, organism-based; conditions: Hepacivirus hominis
[3] = Cytotoxicity against human Huh-7/3-1 cells assessed as cell viability at 0.1 to 100 uM after 72 hrs by WST-8 assay; type: cell-based
[4] = Cytotoxicity against human Huh-7/3-1 cells assessed as cell cycle progression at 0.02 to 50 uM after 72 hrs by flow-cytometry; type: cell-based
[5] = system: Hepatitis C virus; assay: Antiviral activity against Hepatitis C virus (isolate Con1) genotype 1b in human Huh-7/3-1 cells assessed as disappearance of NS3 protein from perinuclear region at 100 nM after 96 hrs by immunostaining; type: functional, organism-based; conditions: Hepacivirus hominis
[6] = system: Hepatitis C virus; assay: Antiviral activity against Hepatitis C virus (isolate Con1) genotype 1b in human Huh-7/3-1 cells assessed as reduction in NS3 protein level at 100 nM by Western blot analysis; type: functional, organism-based; conditions: Hepacivirus hominis, TDE = time-dependent effect
[7] = system: Hepatitis C virus; assay: Antiviral activity against Hepatitis C virus (isolate Con1) genotype 1b in human Huh-7/3-1 cells assessed as reduction in NS5A protein level at 100 nM by Western blot analysis; type: functional, organism-based; conditions: Hepacivirus hominis, TDE = time-dependent effect
[8] = system: Hepatitis C virus; assay: Antiviral activity against Hepatitis C virus (isolate Con1) genotype 1b in human Huh-7/3-1 cells assessed as reduction in NS5B protein level at 100 nM by Western blot analysis; type: functional, organism-based; conditions: Hepacivirus hominis, TDE = time-dependent effect
[9] = molecular target: T1, Serine palmitoyltransferase 1 (Homo sapiens, UniProt O15269); assay: Inhibition of human recombinant SPT1 activity in LCB1 transfected human HEK293 cells; type: cell-based
T1 sequence (O15269 whole entry): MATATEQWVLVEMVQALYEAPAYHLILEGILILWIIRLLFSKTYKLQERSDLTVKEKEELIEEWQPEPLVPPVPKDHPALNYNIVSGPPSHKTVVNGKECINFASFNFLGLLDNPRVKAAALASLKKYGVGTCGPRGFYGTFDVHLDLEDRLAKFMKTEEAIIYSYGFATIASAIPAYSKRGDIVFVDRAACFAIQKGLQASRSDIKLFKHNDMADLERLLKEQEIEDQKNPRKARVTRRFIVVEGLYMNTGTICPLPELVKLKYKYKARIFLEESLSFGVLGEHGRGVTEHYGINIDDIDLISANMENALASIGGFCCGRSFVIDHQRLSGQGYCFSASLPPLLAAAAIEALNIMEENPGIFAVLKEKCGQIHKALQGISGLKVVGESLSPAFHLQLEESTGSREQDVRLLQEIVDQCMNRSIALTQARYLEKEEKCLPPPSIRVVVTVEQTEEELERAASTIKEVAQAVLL

[10] = system: Hepatitis C virus; assay: Antiviral activity against Hepatitis C virus (isolate Con1) genotype 1b in human Huh-7/3-1 cells assessed as reduction in NS3 protein level at 1 uM by Western blot analysis in presence of 1 uM C2-ceramide; type: functional, organism-based; conditions: Hepacivirus hominis
[11] = system: Hepatitis C virus; assay: Antiviral activity against Hepatitis C virus (isolate Con1) genotype 1b in human Huh-7/3-1 cells assessed as reduction in NS3 protein level at 1 uM by Western blot analysis in presence of 5 uM C2-ceramide; type: functional, organism-based; conditions: Hepacivirus hominis
[12] = system: Hepatitis C virus; assay: Antiviral activity against Hepatitis C virus (isolate Con1) genotype 1b in human Huh-7/3-1 cells assessed as reduction in NS5B protein level in golgi-derived detergent-resistant membrane at 1 uM after 72 hrs by immunoblotting analysis; type: functional, organism-based; conditions: Hepacivirus hominis
[13] = system: Hepatitis C virus; assay: Antiviral activity against Hepatitis C virus (isolate Con1) genotype 1b in human Huh-7/3-1 cells assessed as reduction in NS3 protein level in golgi-derived detergent-resistant membrane at 1 uM after 72 hrs by immunoblotting analysis; type: functional, organism-based; conditions: Hepacivirus hominis
[14] = system: Hepatitis C virus; assay: Antiviral activity against Hepatitis C virus (isolate Con1) genotype 1b in human Huh-7/3-1 cells assessed as reduction in NS5A protein level in golgi-derived detergent-resistant membrane at 1 uM after 72 hrs by immunoblotting analysis; type: functional, organism-based; conditions: Hepacivirus hominis
[15] = species on record: Homo sapiens; assay: Effect on Caveolin-2 localization in human Huh-7/3-1 replicon golgi-derived detergent-resistant membrane at 1 uM after 72 hrs by immunoblotting analysis; type: functional
[16] = system: Hepatitis C virus; assay: Relocation of NS5B in human Huh-7/3-1 Hepatitis C virus (isolate Con1) genotype 1b replicon cells using golgi-derived detergent-resistant membrane at 10 nM after 72 hrs by immunoblotting analysis; type: functional, organism-based; conditions: Hepacivirus hominis
[17] = Cytotoxicity against human Huh-7/3-1 cells assessed as cell viability at 0.1 to 100 uM after 72 hrs by Trypan Blue exclusion test; type: cell-based
[18] = system: Hepatitis C virus; assay: microbe, parasite or virus in culture; conditions: isolate Con1, Huh-7, 72 h
Description: Antiviral activity against Hepatitis C virus (isolate Con1) genotype 1b in human Huh-7/3-1 cells assessed as inhibition of HCV replication after 72 hrs by luciferase assay

[19] = system: Hepatitis C virus; assay: microbe, parasite or virus in culture; conditions: isolate Con1, Huh-7
Description: Antiviral activity against Hepatitis C virus (isolate Con1) genotype 1b in human Huh-7/3-1 cells assessed as inhibition of SPT activity in presence of 1 uM sphinganine

[20] = system: Hepatitis C virus; assay: microbe, parasite or virus in culture; conditions: isolate Con1, Huh-7; remark: listed apart in the source
Description: Antiviral activity against Hepatitis C virus (isolate Con1) genotype 1b in human Huh-7/3-1 cells assessed as inhibition of SPT activity in presence of 3 uM sphinganine

[21] = system: Hepatitis C virus; assay: Antiviral activity against Hepatitis C virus (isolate Con1) genotype 1b in human Huh-7/3-1 cells assessed as inhibition of HCV replication; type: functional, organism-based, Hepacivirus hominis; conditions: isolate Con1, Huh-7
[22] = Cytotoxicity against human Huh-7/3-1 cells assessed as reduction in cell viability; type: cell-based
[23] = system: Hepatitis C virus; assay: Binding affinity at HCV NS5B at 1 nmol by ELISA; conditions: Hepacivirus hominis; Con1
[24] = Cytotoxicity against human Huh-7/3-1 cells assessed as cell viability at 0.1 to 11 uM after 72 hrs by WST-8 assay; type: cell-based

CCCCCCCC(=O)CCCCCC/C=C/[C@H](C(=O)N[C@@H](Cc1ccc(OCC=C(C)C)cc1)C(=O)O)[C@@](O)(CC(=O)O)C(=O)O
Activity [1]: Dose-dependent effect
Activity [2]: Active
Activity [3]: > 50 µM
Activity [4]: Non-toxic
Activity [5]: Active
Activity [6]: tde
Activity [7]: tde
Activity [8]: tde
IC50 [9]: 10 nM
Activity [10]: inactive
Activity [11]: inactive
Activity [12]: Active
Activity [13]: inactive
Activity [14]: inactive
Activity [15]: inactive
Activity [16]: inactive
Activity [17]: Non-toxic
IC50 [18]: 2 nM
IC50 [19]: 33 nM
IC50 [20]: > 1000 nM

CCCCCCCCCCCCCCCC(=O)NC(CN1CCOCC1)C(O)c1ccccc1 (stereo not given)
IC50 [21]: 1200 nM
Activity [22]: 5.3 µM

CCCCCCC(=O)CCCCCC/C=C/C[C@@H](O)[C@H](O)[C@@](N)(CO)C(=O)O
Activity [12]: Active

CCCCCCCCCCCCCC/C=C/[C@@H](O)[C@H](CO[C@@H]1O[C@H](CO)[C@H](O)[C@H](O)[C@H]1O)NC(=O)CCCCCCCCCCCCCCCCC
Activity [23]: Active

CCCCCCCCCCCC(=O)N[C@@H](CO)C[C@@H](O)c1ccccc1
Activity [24]: Non-toxic
